# Laboratory results as given in patent US7718641B2, “Pyrrolo [3,4-H] isoquinoline compounds and methods for modulating gated ion channels” (Aros Pharma ApS, priority 2005, dated 2010).
# Target: T1, heteromeric hASIC1a+3 (Homo sapiens, UniProt P78348+Q9UHC3)
# T1 sequence (P78348 1-528): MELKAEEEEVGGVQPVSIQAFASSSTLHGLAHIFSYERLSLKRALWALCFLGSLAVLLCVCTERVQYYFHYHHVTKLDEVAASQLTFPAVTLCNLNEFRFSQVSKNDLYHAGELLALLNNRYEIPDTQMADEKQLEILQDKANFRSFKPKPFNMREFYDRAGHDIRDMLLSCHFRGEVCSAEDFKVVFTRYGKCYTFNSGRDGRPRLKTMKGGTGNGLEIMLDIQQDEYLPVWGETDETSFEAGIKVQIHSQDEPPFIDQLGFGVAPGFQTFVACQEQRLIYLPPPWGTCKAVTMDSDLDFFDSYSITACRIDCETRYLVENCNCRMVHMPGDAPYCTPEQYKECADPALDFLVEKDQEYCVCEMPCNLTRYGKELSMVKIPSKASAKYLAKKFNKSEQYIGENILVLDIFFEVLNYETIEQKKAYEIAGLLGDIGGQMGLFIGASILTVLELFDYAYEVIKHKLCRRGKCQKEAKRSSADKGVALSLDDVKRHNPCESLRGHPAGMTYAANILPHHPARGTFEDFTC
# T1 sequence (Q9UHC3 1-531): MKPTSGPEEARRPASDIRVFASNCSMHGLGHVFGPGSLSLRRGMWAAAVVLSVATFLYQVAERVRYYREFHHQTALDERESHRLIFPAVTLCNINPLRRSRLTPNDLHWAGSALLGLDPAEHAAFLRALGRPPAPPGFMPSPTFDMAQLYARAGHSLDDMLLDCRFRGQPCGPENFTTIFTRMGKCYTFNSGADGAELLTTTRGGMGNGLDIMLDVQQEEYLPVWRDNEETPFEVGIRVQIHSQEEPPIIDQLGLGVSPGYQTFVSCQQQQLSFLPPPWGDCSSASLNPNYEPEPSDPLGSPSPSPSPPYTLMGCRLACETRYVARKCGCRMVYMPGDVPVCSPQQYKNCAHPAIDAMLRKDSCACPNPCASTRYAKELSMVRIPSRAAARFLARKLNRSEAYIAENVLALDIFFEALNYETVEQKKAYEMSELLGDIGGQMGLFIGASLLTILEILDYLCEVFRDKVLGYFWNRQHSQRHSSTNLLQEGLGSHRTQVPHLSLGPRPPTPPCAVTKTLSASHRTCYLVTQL
# Experiment: Two-electrode voltage clamp in Xenopus laevis oocytes expressing heteromeric hASIC1a+3
# Assay type: cell-based
# Set-up: expressed in transfected cells
# Conditions: 30 μM, OpusExpress
# Method: Two-electrode voltage clamp electrophysiological assays in Xenopus laevis oocytes expressing gated ion channels are performed as follows:
# Oocytes are surgically removed from adult Xenopus laevis and treated for 2 h at room temperature with 1 mg/ml type I collagenase (Sigma) in Barth's solution under mild agitation. Selected oocytes at stage IV-V are defolliculated manually before nuclear microinjection of 2.5-5 ng of a suitable expression vector, such as pcDNA3, comprising the nucleotide sequence encoding a gated ion channel subunit protein. In such an experiment, the oocytes express homomultimeric proton-gated ion channels on their surface. In an alternate experiment, one, two, three or more vectors comprising the coding sequences for distinct gated ion channel subunits are co-injected in the oocyte nuclei. […] After 2-4 days of expression at 19° C. in Barth's solution containing […] gentamicin and 1.8 mM CaCl2, gated ion channels are activated by applying an acidic solution (pH <7) and currents are recorded in a two electrode voltage-clamp configuration, using an OC-725B amplifier (Warner Instruments). Currents are acquired and digitized at 500 Hz on an Apple Imac G3 computer with an A/D NB-MIO-16XL interface (National Instruments) and recorded traces are post-filtered at 100 Hz in Axograph (Axon Instruments) (Neher, E. and Sakmann, B. (1976) Nature 260:799-802). […]
smiles,measurement,value
"COc1ccc(F)cc1-c1cc2c(c3c1CCN(C)C3)NC(=O)/C2=N/O [Compound A, 5-(5-fluoro-2-methoxyphenyl)-6,7,8,9-tetrahydro-3-(hydroxyimino)-8-methyl-1H-pyrrolo[3,2-h]isoquinoline-2(3H)-one]","effect on inward currents elicited by pH 6.5, heteromeric hASIC1a+3",effectively modulates the activity
